Test results published in ChEMBL document CHEMBL3045856, “Synthesis antimicrobial and anticancer activity of N-arylmethylidene-piperazine-1-carbothiohydrazide” (Med Chem Res, 2013).

Test system: HL-60
Experiment: Anticancer activity against Homo sapiens (human) HL60 cells after 48 hr by CC108 microcell counter analysis
Type: functional, cell-based
Conditions: HL-60, 48 h

Structure (SMILES) | IC50
C/C(=N\NC(=S)N1CCNCC1)c1cccc([N+](=O)[O-])c1 | 62000 nM
S=C(N/N=C/c1ccccc1)N1CCNCC1 | 63000 nM
Cc1ccc(/C=N/NC(=S)N2CCNCC2)cc1 | 70000 nM
Oc1ccc(/C=N/NC(=S)N2CCNCC2)cc1 | 50000 nM
C/C(=N\NC(=S)N1CCNCC1)c1ccc(O)cc1 | 60000 nM
S=C(N/N=C/c1ccc(Cl)cc1)N1CCNCC1 | 69000 nM

Test system: HBL-100
Experiment: Ratio of compound IC50 to methotrexate IC50 for Homo sapiens (human) HBL100 cells after 72 hr by MTT assay
Type: functional
Conditions: not given

Structure (SMILES) | Ratio IC50
Oc1ccc(/C=N/NC(=S)N2CCNCC2)cc1 | 4.5

Test system: HBL-100
Experiment: Anticancer activity against Homo sapiens (human) HBL100 cells after 72 hr by MTT assay
Type: functional, cell-based
Conditions: HBL-100, 72 h

Structure (SMILES) | IC50
S=C(NN=C(c1ccccc1)c1ccccc1)N1CCNCC1 | 340 nM
C/C(=N\NC(=S)N1CCNCC1)c1cccc([N+](=O)[O-])c1 | 990 nM
CN(Cc1cnc2nc(N)nc(N)c2n1)c1ccc(C(=O)N[C@@H](CCC(=O)O)C(=O)O)cc1 [METHOTREXATE] | 40 nM
S=C(N/N=C/c1ccccc1)N1CCNCC1 | 2410 nM
Cc1ccc(/C=N/NC(=S)N2CCNCC2)cc1 | 800 nM
COc1ccc(/C=N/NC(=S)N2CCNCC2)cc1 | 1620 nM
C/C(=N\NC(=S)N1CCNCC1)c1ccc(Cl)cc1 | 260 nM
Oc1ccc(/C=N/NC(=S)N2CCNCC2)cc1 | 180 nM
C/C(=N/NC(=S)N1CCNCC1)c1ccccc1 | 290 nM
C/C(=N\NC(=S)N1CCNCC1)c1ccc(O)cc1 | 540 nM
S=C(N/N=C/c1ccc(Cl)cc1)N1CCNCC1 | 1600 nM

Test system: Aspergillus niger
Experiment: Antimicrobial activity against Aspergillus niger assessed as growth inhibition after 24 hr by cup plate method
Type: functional, organism-based
Conditions: not given

Structure (SMILES) | IC50
S=C(NN=C(c1ccccc1)c1ccccc1)N1CCNCC1 | 1620 nM
C/C(=N\NC(=S)N1CCNCC1)c1cccc([N+](=O)[O-])c1 | 1560 nM
S=C(N/N=C/c1ccccc1)N1CCNCC1 | 2210 nM
OC(Cn1cncn1)(Cn1cncn1)c1ccc(F)cc1F [FLUCONAZOLE] | > 10000 nM
Cc1ccc(/C=N/NC(=S)N2CCNCC2)cc1 | 3790 nM
COc1ccc(/C=N/NC(=S)N2CCNCC2)cc1 | 2090 nM
C/C(=N\NC(=S)N1CCNCC1)c1ccc(Cl)cc1 | 3320 nM
Oc1ccc(/C=N/NC(=S)N2CCNCC2)cc1 | 1970 nM
C/C(=N/NC(=S)N1CCNCC1)c1ccccc1 | 3760 nM
C/C(=N\NC(=S)N1CCNCC1)c1ccc(O)cc1 | 3550 nM
S=C(N/N=C/c1ccc(Cl)cc1)N1CCNCC1 | 2140 nM

Test system: Candida albicans
Experiment: Antimicrobial activity against Candida albicans assessed as growth inhibition after 24 hr by serial double dilution method
Type: functional, organism-based
Conditions: not given

Structure (SMILES) | IC50
OC(Cn1cncn1)(Cn1cncn1)c1ccc(F)cc1F [FLUCONAZOLE] | 980 nM

Same assay, conditions: read-out: IC50

Structure (SMILES) | IC50
S=C(NN=C(c1ccccc1)c1ccccc1)N1CCNCC1 | 1470 nM
C/C(=N\NC(=S)N1CCNCC1)c1cccc([N+](=O)[O-])c1 | 2000 nM
S=C(N/N=C/c1ccccc1)N1CCNCC1 | 1850 nM
Cc1ccc(/C=N/NC(=S)N2CCNCC2)cc1 | 3720 nM
COc1ccc(/C=N/NC(=S)N2CCNCC2)cc1 | 2150 nM
C/C(=N\NC(=S)N1CCNCC1)c1ccc(Cl)cc1 | 3370 nM
Oc1ccc(/C=N/NC(=S)N2CCNCC2)cc1 | 1940 nM
C/C(=N/NC(=S)N1CCNCC1)c1ccccc1 | 3750 nM
C/C(=N\NC(=S)N1CCNCC1)c1ccc(O)cc1 | 2560 nM
S=C(N/N=C/c1ccc(Cl)cc1)N1CCNCC1 | 1850 nM

Test system: Vibrio cholerae
Experiment: Antimicrobial activity against Vibrio cholerae assessed as growth inhibition after 24 hr by cup-plate method
Type: functional, organism-based
Conditions: not given

Structure (SMILES) | IC50
O=C(O)c1cn(C2CC2)c2cc(N3CCNCC3)c(F)cc2c1=O [CIPROFLOXACIN] | 200 nM
S=C(NN=C(c1ccccc1)c1ccccc1)N1CCNCC1 | 1380 nM
C/C(=N\NC(=S)N1CCNCC1)c1cccc([N+](=O)[O-])c1 | 860 nM
S=C(N/N=C/c1ccccc1)N1CCNCC1 | 2230 nM
Cc1ccc(/C=N/NC(=S)N2CCNCC2)cc1 | 3570 nM
COc1ccc(/C=N/NC(=S)N2CCNCC2)cc1 | 1530 nM
C/C(=N\NC(=S)N1CCNCC1)c1ccc(Cl)cc1 | 780 nM
Oc1ccc(/C=N/NC(=S)N2CCNCC2)cc1 | 1660 nM
C/C(=N/NC(=S)N1CCNCC1)c1ccccc1 | 1170 nM
C/C(=N\NC(=S)N1CCNCC1)c1ccc(O)cc1 | 1590 nM
S=C(N/N=C/c1ccc(Cl)cc1)N1CCNCC1 | 600 nM

Test system: Bacillus subtilis
Experiment: Antimicrobial activity against Bacillus subtilis NCIM 2921 assessed as growth inhibition after 24 hr by serial double dilution method
Type: functional, organism-based
Conditions: NCIM 2921, 24 h

Structure (SMILES) | IC50
O=C(O)c1cn(C2CC2)c2cc(N3CCNCC3)c(F)cc2c1=O [CIPROFLOXACIN] | 4700 nM

Same assay, conditions: NCIM 2921, 24 h, read-out: IC50

Structure (SMILES) | IC50
S=C(NN=C(c1ccccc1)c1ccccc1)N1CCNCC1 | 1380 nM
C/C(=N\NC(=S)N1CCNCC1)c1cccc([N+](=O)[O-])c1 | 320 nM
S=C(N/N=C/c1ccccc1)N1CCNCC1 | 930 nM
Cc1ccc(/C=N/NC(=S)N2CCNCC2)cc1 | 1700 nM
COc1ccc(/C=N/NC(=S)N2CCNCC2)cc1 | 660 nM
C/C(=N\NC(=S)N1CCNCC1)c1ccc(Cl)cc1 | 980 nM
Oc1ccc(/C=N/NC(=S)N2CCNCC2)cc1 | 1620 nM
C/C(=N/NC(=S)N1CCNCC1)c1ccccc1 | 1780 nM
C/C(=N\NC(=S)N1CCNCC1)c1ccc(O)cc1 | 3490 nM
S=C(N/N=C/c1ccc(Cl)cc1)N1CCNCC1 | 130 nM

Test system: Staphylococcus aureus
Experiment: Antimicrobial activity against Staphylococcus aureus NCIM 2079 assessed as growth inhibition after 24 hr by serial double dilution method
Type: functional, organism-based
Conditions: NCIM 2079, 24 h

Structure (SMILES) | IC50
O=C(O)c1cn(C2CC2)c2cc(N3CCNCC3)c(F)cc2c1=O [CIPROFLOXACIN] | 1200 nM
S=C(NN=C(c1ccccc1)c1ccccc1)N1CCNCC1 | 1330 nM
C/C(=N\NC(=S)N1CCNCC1)c1cccc([N+](=O)[O-])c1 | 860 nM
S=C(N/N=C/c1ccccc1)N1CCNCC1 | 1360 nM
Cc1ccc(/C=N/NC(=S)N2CCNCC2)cc1 | 1660 nM
COc1ccc(/C=N/NC(=S)N2CCNCC2)cc1 | 790 nM
C/C(=N\NC(=S)N1CCNCC1)c1ccc(Cl)cc1 | 1040 nM
Oc1ccc(/C=N/NC(=S)N2CCNCC2)cc1 | 1700 nM
C/C(=N/NC(=S)N1CCNCC1)c1ccccc1 | 2070 nM
C/C(=N\NC(=S)N1CCNCC1)c1ccc(O)cc1 | 1580 nM
S=C(N/N=C/c1ccc(Cl)cc1)N1CCNCC1 | 540 nM

Test system: Pseudomonas aeruginosa
Experiment: Antimicrobial activity against Pseudomonas aeruginosa NCIM 2967 assessed as growth inhibition after 24 hr by serial double dilution method
Type: functional, organism-based
Conditions: NCIM 2967, 24 h

Structure (SMILES) | IC50
O=C(O)c1cn(C2CC2)c2cc(N3CCNCC3)c(F)cc2c1=O [CIPROFLOXACIN] | 50 nM
S=C(NN=C(c1ccccc1)c1ccccc1)N1CCNCC1 | 1440 nM
C/C(=N\NC(=S)N1CCNCC1)c1cccc([N+](=O)[O-])c1 | 600 nM
S=C(N/N=C/c1ccccc1)N1CCNCC1 | 1970 nM
Cc1ccc(/C=N/NC(=S)N2CCNCC2)cc1 | 1700 nM
COc1ccc(/C=N/NC(=S)N2CCNCC2)cc1 | 1570 nM
C/C(=N\NC(=S)N1CCNCC1)c1ccc(Cl)cc1 | 710 nM
Oc1ccc(/C=N/NC(=S)N2CCNCC2)cc1 | 1630 nM
C/C(=N/NC(=S)N1CCNCC1)c1ccccc1 | 2110 nM
C/C(=N\NC(=S)N1CCNCC1)c1ccc(O)cc1 | 3510 nM
S=C(N/N=C/c1ccc(Cl)cc1)N1CCNCC1 | 600 nM

Test system: Escherichia coli
Experiment: Antimicrobial activity against Escherichia coli NCIM 2068 assessed as growth inhibition after 24 hr by serial double dilution method
Type: functional, organism-based
Conditions: NCIM 2068, 24 h

Structure (SMILES) | IC50
S=C(NN=C(c1ccccc1)c1ccccc1)N1CCNCC1 | 3030 nM
C/C(=N\NC(=S)N1CCNCC1)c1cccc([N+](=O)[O-])c1 | 570 nM
S=C(N/N=C/c1ccccc1)N1CCNCC1 | 3910 nM
Cc1ccc(/C=N/NC(=S)N2CCNCC2)cc1 | 1740 nM
COc1ccc(/C=N/NC(=S)N2CCNCC2)cc1 | 1590 nM
C/C(=N\NC(=S)N1CCNCC1)c1ccc(Cl)cc1 | 880 nM
Oc1ccc(/C=N/NC(=S)N2CCNCC2)cc1 | 1640 nM
C/C(=N/NC(=S)N1CCNCC1)c1ccccc1 | 1760 nM
C/C(=N\NC(=S)N1CCNCC1)c1ccc(O)cc1 | 3480 nM
S=C(N/N=C/c1ccc(Cl)cc1)N1CCNCC1 | 1520 nM
